Reference: patent US20250101077A1, “PEPTIDES AND PHARMACEUTICAL COMPOSITION FOR THE TREATMENT OF TUMOURS” (UNIVERSIDAD DE SALAMANCA, priority 2022, published 2025)

Experiments:
[1] = test system: G166 human glioblastoma stem cells; experiment: MTT colour viability test and phase-contrast images; type: cell-based; settings: 50 μM; for proliferation and survival of human glioblastoma stem cells: phase-contrast images at 48h and MTT at 0, 24, 48 and 72h, FIGS. 5 and 6; for morphology and viability of glioblastoma stem cells (MTT assay): FIG. 1
Method: The human glioblastoma stem cell line G166 was obtained from Biorep, deposited and characterised in Pollard et al., Cell Stem Cell. 4(6):568-80 (2009). The human glioblastoma stem cell line E22 was also obtained from Pollard lab (U. Edinburgh).
In all these cases, cells were cultured in neurobasal culture medium supplemented with 2% B27, 1% N2, 20 ng/mL EGF and 20 ng/mL bFGF, in laminin-coated culture plates, to generate adherent cell cultures. Thanks to their self-renewal capacity, when these cells are expanded in adherent cultures under these culture conditions, they maintain the above-mentioned properties, i.e. the characteristic glioblastoma stem cell phenotype and genotype, including their tumourigenicity, for more than 20 passages.
(§1) Different peptides based on the 266-283 sequence of Cx43 fused to TAT at its N-terminal end were used, all at a concentration of 50 μM, in culture medium and their effect was analysed at different treatment times. In parallel, these cells were analysed in the absence of treatment (control), in the presence of the antitumour peptide TAT-Cx43266-283 ([…]; corresponding to the peptide described in patent WO2014191608 A1 linked to the cell internalisation sequence TAT; SEQ ID NO: 35) and in the presence of the peptides without antitumour activity, TAT (YGRKKRRQRRR; SEQ ID NO: 7) and TAT-Cx43274-291 (YGRKKRRQRRR PTAPLSPMSPPGYKLVTG; SEQ ID NO: 26). For pull-down assays and visualization the peptides were fused to biotin via a C-terminal lysine.
For this study, cells were seeded at low density and the number of viable cells was determined at different days of treatment. For this purpose, the medium was removed and the cells were incubated with 300 μL of PBS in the presence of MTT (0.5 mg/mL) for 75 minutes in the dark at 37° C. in a CO2 incubator. The medium was then removed, and 500 μL of DMSO was added. The cells were shaken in the dark for 10 minutes. Finally, absorbance was determined at 570 nm.

albumin = albumin (Homo sapiens, UniProt P02768); experiment: Albumin binding by Western blot under native or denaturing and reducing conditions; settings: 2.5 μM biotinylated peptide plus 0.1% (w/v) albumin in PBS, native conditions, FIG. 8
Method: FIG. 8. TAT-Cx43266-283 and TAT-Cx43266-275 bind to albumin via a cysteine dependent mechanism. TAT, TAT-Cx43274-291, TAT-Cx43266-283, TAT-Cx43266-283F/A, TAT-Cx43266-283C/A and TAT-Cx43266-275 were fused to biotin to allow their analysis by Western blot. Solutions of each peptide plus albumin in PBS were analyzed in native (N) or denaturing and reducing conditions (DR) to identify their interaction with albumin. […] Note that the sensitivity of the Ponceau staining was not enough to detect the peptide at about 10 kDa, therefore only albumin bands are shown. […] Note that TAT-Cx43266-283 and TAT-Cx43266-275 appear bound to albumin under native conditions while denaturation and reduction promoted the release of these peptides.
Western blotting was performed as described previously (Jaraiz-Rodriguez, M. et al., Neuro-Oncology, 22, 493-504 (2020)). Briefly, 2.5 μM biotinylated peptides plus 0.1% (w/v) albumin in PBS were analysed by Western blot under native (N) or denaturing and reducing (DR) conditions. For native conditions, samples were analysed without further treatment. For denaturing and reducing conditions samples were treated with 0.1 M β-mercaptoethanol and 4% SDS and heated at 99° C. for 5 min. Samples were subjected to electrophoresis on NuPAGE Novex Bis-Tris 4-12% Midi gels (Life Technologies) at room temperature and constant voltage. Proteins were transferred to a nitrocellulose membrane (iBlot Gel Transfer Stacks Nitrocellulose) using an iBlot dry blotting system (Life Technologies). Membranes were incubated with Ponceau S staining solution for protein staining in red. After washing the membranes were blocked with 5% non-fat dry milk in PBS and then incubated with HRP-Streptavidin (1:5000; Dako P0397) for 30 minutes at room temperature. After extensive washing, the membranes were developed with a chemiluminescent substrate (Western Blotting Luminol Reagent; Santa Cruz Biotechnology) in a MicroChemi imaging system (Bioimaging Systems).

[2] = test system: human glioblastoma stem cells; experiment: Internalisation of biotin-fused peptides; type: cell-based; settings: peptides fused to biotin
Method: as §1

Csk = target: T1, Csk (Homo sapiens, UniProt P41240); experiment: Pull-down of biotinylated peptides with NeutrAvidin beads, Western blot; type: binding; settings: 50 μM biotinylated peptide, 30 min, E22 glioblastoma stem cells, FIG. 9
T1 construct: endogenous in cells; host or cells: human E22 glioblastoma stem cells
Method: (§2) FIG. 9. Intracellular interactions of biotinylated TAT-Cx43266-283, TAT-Cx43266-283C/A and TAT-Cx43266-275 in human glioblastoma stem cells. Human E22 glioblastoma stem cells were incubated with 50 μM biotinylated TAT-Cx43266-283, TAT-Cx43266-283C/A and TAT-Cx43266-275. After 30 min the cells were lysed and biotinylated peptides attached to their intracellular partners were pulled down with NeutrAvidin beads. The eluted proteins were loaded and analyzed by Western blot to study the levels of c-Src, Y416-Src, and Csk.
(§3) Pulldown experiments were performed as described in González-Sánchez A. et al., Oncotarget, 7(31):49819-49833 (2016); Jaraiz-Rodriguez M. et al., J Vis Exp. (130):56457 (2017)). Confluent cells grown in 25 cm^2 flasks were incubated with 50 μM biotinylated peptides for 30 min. Proteins were then collected in 0.5 ml of lysis buffer (20 mM Tris-HCl (pH 8.0), 137 mM NaCl, 1% IGEPAL, 1 mM PMSF, protease cocktail (1:100; Cocktail Ill, Calbiochem), 1 mM NaF and 0.1 mM Na3VO4). Lysates were centrifuged at 11000×g for 10 minutes at 4° C., and the supernatants were recovered. A 50-μl aliquot of each lysate was used to analyze the protein content, and the remaining lysate was incubated with NeutrAvidin-Agarose (Thermo Scientific, Rockford, IL, USA; Ref. 29200) for 12 h at 4° C. with gentle shaking. The avidin beads bound with the peptides were collected by centrifugation (3000×g for 1 minutes at 4° C.). The beads were then washed five times with lysis buffer, and the bound proteins were eluted and analyzed by Western blotting under denaturing and reducing contidions. The membranes were blocked with 5% non-fat dry milk in PBS-T and then incubated overnight at 4° C. with the primary antibodies against rabbit CSK (1:250; Cell Signaling Technology, Ref. 4980), rabbit Y416 Src (1:250, Cell Signaling Technology, Ref. 2101) and mouse total c-Src (1:500, Cell Signaling Technology, Ref. 2110). To detect biotinylated peptides, the membranes were incubated with HRP-conjugated streptavidin in PBS (1:5000; Dako Ref.P0397) for 30 minutes and then developed with a chemiluminescent substrate.

Y416-Src = target: T2, Y416-Src (Homo sapiens, UniProt P12931); experiment: as above; type: binding; settings: 50 μM biotinylated peptide, 30 min, E22 glioblastoma stem cells, FIG. 9
T2 construct: endogenous in cells; host or cells: human E22 glioblastoma stem cells
Method: as §2, §3

c-Src [3] = target: T3, c-Src (Homo sapiens, UniProt P12931); experiment: as above; type: binding; set-up: the cells were lysed and biotinylated peptides attached to their intracellular partners were pulled down with NeutrAvidin beads; endogenous in cells; host or cells: human E22 glioblastoma stem cells; settings: 50 μM biotinylated peptide, 30 min, E22 glioblastoma stem cells, FIG. 9
Method: as §2
as §3, with “To detect biotinylated peptides, the membranes were incubated with HRP-conjugated streptavidin in PBS (1:5000; Dako Ref.P0397) for 30 minutes and then developed with a chemiluminescent substrate.” left out

[4] = test system: G166 human glioblastoma stem cells; experiment: Migration by live cell microscope videos; type: cell-based; settings: 50 μM, frames every 100 minutes, FIG. 7
Method: FIG. 7. Representative images of the effect of Cx43-based penetrating peptides on the migration of human glioblastoma stem cells. G166 human glioblastoma stem cells were treated in the absence (control) or presence of TAT-Cx43266-283 or TAT-Cx43266-275, both at a concentration of 50 μM. Phase-contrast videos of the cells were made using a live cell microscope. Shown are 3 representative frames taken every 100 minutes of the cells in the control condition, TAT-Cx43266-283 and TAT-Cx43266-275. 3 cells in each condition have been selected and numbered.
Migration is the cause of these tumour cells invading the surrounding parenchyma, escaping surgery and causing the recurrence of these tumours, which is the main cause of mortality.

[5] = test system: human and mouse glioblastoma stem cells; settings: in vitro and in vivo, from cited publications; cited from earlier work
c-Src [6] = target: T3, c-Src; settings: from cited publications; cited from earlier work

T1 sequence (P41240 whole entry): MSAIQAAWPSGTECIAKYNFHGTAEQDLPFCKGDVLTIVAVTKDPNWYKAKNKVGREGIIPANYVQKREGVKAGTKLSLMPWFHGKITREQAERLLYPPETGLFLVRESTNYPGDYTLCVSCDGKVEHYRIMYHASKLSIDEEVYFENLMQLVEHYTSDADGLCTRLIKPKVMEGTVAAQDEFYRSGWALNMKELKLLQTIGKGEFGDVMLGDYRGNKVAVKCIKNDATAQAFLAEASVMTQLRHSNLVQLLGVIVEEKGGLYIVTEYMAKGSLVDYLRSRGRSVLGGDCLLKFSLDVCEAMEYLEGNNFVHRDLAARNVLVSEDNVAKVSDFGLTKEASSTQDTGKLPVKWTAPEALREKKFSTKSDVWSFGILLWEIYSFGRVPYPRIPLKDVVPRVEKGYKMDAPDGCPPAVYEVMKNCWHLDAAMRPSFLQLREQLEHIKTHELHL

Sequence: YGRKKRRQRRRAYANGCSSPTAPLSPMSP [TAT-Cx43266-283 F/A]
- tumour cell morphology and viability (MTT assay) ([1]; 48h, FIG. 4): affects tumour cell morphology and viability, but to a much lesser extent
- binding to albumin (albumin): did not affect the interaction with albumin

Sequence: YGRKKRRQRRRAYFNGCSSPTAPLS [TAT-Cx43266-279]
- internalisation in human glioblastoma stem cells [2]: able to be internalised
- proliferation and survival of human glioblastoma stem cells [1]: reduce proliferation and survival

Sequence: YGRKKRRQRRR PTAPLSPMSPPGYKLVTG (YGRKKRRQRRRPTAPLSPMSPPGYKLVTG) [TAT-Cx43274-291, reference compound]
- proliferation and survival of human glioblastoma stem cells [1]: do not produce significant effects

Sequence: YGRKKRRQRRRAYFNGCSSPT [TAT-Cx43266-275]
- intracellular interaction with Csk (Csk): interact preferentially
- intracellular interaction with Y416-Src (Y416-Src): interact preferentially
- internalisation in human glioblastoma stem cells [2]: able to be internalised
- anti-tumour effect compared with the other peptides (MTT assay) ([1]; 0-72h, FIG. 6): significantly higher than the rest of the peptides
- proliferation and survival of human glioblastoma stem cells [1]: reduce proliferation and survival
- intracellular interaction with c-Src (c-Src [3]): interact preferentially
- migration of human glioblastoma stem cells [4]: reduces the migration
- binding to albumin (albumin): bind to albumin under native conditions

Sequence: YGRKKRRQRRRAYFNGASSPTAPLSPMSP [TAT-Cx43266-283 C/A]
- intracellular interaction with Csk (Csk): did not show significant interactions
- intracellular interaction with Y416-Src (Y416-Src): did not show significant interactions
- morphology and viability of glioblastoma stem cells (MTT assay) ([1]; 48h): very similar to that of untreated (control) cells
- intracellular interaction with c-Src (c-Src [3]): did not show significant interactions
- binding to albumin (albumin): disrupted albumin-peptide interaction

Sequence: YGRKKRRQRRRFNGCSSPTAPLSPMSP [TAT-Cx43268-283]
- ability to reduce proliferation (MTT assay) ([1]; 72h, FIG. 3): less ability to reduce proliferation than TAT-Cx43266-283

Sequence: YGRKKRRQRRRAYFNGCSSPTAP [TAT-Cx43266-277]
- internalisation in human glioblastoma stem cells [2]: able to be internalised
- proliferation and survival of human glioblastoma stem cells [1]: reduce proliferation and survival

Sequence: YGRKKRRQRRR (Cell internalisation sequence) [TAT, reference compound]
- proliferation and survival of human glioblastoma stem cells [1]: do not produce significant effects

Sequence: YGRKKRRQRRRAYFNGCSSPTAPLSPM [TAT-Cx43266-281]
- internalisation in human glioblastoma stem cells [2]: able to be internalised
- proliferation and survival of human glioblastoma stem cells [1]: reduce proliferation and survival

Sequence: YGRKKRRQRRRCSSPTAPLSPMSPPGYK [TAT-Cx43271-287]
- glioblastoma stem cell survival and proliferation (MTT assay) ([1]; 72h, FIG. 2): slightly reduces glioblastoma stem cell proliferation

Sequence: YGRKKRRQRRRAYFNGCSSPTAPLSPMSP [TAT-Cx43266-283, reference compound]
- intracellular interaction with Csk (Csk): interact preferentially
- intracellular interaction with Y416-Src (Y416-Src): interact preferentially
- internalisation in human glioblastoma stem cells [2]: able to be internalised
- morphology and viability of glioblastoma stem cells (MTT assay) ([1]; 48h): significantly reduces the viability
- proliferation and survival of human glioblastoma stem cells [1]: reduce proliferation and survival
- intracellular interaction with c-Src (c-Src [3]): interact preferentially
- migration of human glioblastoma stem cells [4]: reduces the migration
- antitumour effect [5]: potent antitumour effect
- binding to albumin (albumin): bind to albumin under native conditions
- c-Src activity (c-Src [6]): inhibit c-Src activity
